Legend:
[1] = Particle analysis of MMP selective gold nanosensor (TEM and light scattering); format: physicochemical
Experimental: For the gold nanoparticle derivatives prepared in Example 1-3, the size of nanoparticle was measured using transmission electron microcopy (TEM) and light scattering (Brookhaven Instrument).

MMP-2 = target: T1, MMP-2 (Homo sapiens, UniProt P08253); test: Fluorescence exhibition due to enzyme degradation of gold nanosensor by activated MMP-2 (96-well, Kodak Image Station); format: biochemical; conditions: 37° C., 2 hours
T1 sequence (P08253 110-660): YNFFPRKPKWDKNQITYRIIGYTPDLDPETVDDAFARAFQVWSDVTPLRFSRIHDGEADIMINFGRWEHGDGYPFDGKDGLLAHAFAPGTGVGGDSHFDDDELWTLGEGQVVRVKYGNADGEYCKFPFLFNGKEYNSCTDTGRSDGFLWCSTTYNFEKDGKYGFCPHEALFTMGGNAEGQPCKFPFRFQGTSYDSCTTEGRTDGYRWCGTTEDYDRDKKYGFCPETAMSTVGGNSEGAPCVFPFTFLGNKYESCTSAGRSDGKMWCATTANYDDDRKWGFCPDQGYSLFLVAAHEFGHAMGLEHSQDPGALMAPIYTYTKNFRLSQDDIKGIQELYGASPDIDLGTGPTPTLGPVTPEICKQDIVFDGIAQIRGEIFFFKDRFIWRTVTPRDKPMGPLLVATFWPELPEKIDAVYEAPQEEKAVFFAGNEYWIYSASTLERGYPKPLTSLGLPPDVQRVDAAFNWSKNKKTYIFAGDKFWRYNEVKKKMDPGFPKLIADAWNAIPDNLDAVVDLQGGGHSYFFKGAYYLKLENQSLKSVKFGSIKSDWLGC
Experimental: (§1) A gold nanosensor was reacted respectively with MMP-2 and MMP-13 each activated in the 96-well, a scramble peptide (i.e., a peptide having the same amino acid contained structure but having different sequence so as not to act as a substrate with respect to a specific enzyme) and MMP-2/MMP-2 inhibitor at temperature of 37° C. for 2 hours, and thereafter a fluorescence exhibition due to the enzyme degradation was observed.
(§2) First, in order to activate the MMP-2 and MMP-13, the MMPs were added into a TCNB mixture (containing 0.1M of tris, 5 mM of calcium chloride, 200 mM of NaCl and 0.1% of Brij) having 2.5 mmol/L of p-aminophenyl mercuric acid added thereto, so as to be reacted at temperature of 37° C. for 1 hour. The activated MMP-2 and MMP-13 were reacted with the gold nanosensor in 200 μL of mixture in each well at temperature of 37° C. for 2 hours, and thereafter the degree of the fluorescence was observed using Kodak Image Station 4000MM Digital Imaging System built in a […] (Charge Coupled Device) camera.
The MMP gold nanosensor was used to quantitatively analyze the concentration of MMP-2 protease. In more detail, according to the same experimental way to that in Example 2-2, each of activated MMP-2s having concentrations of 0, 1.4, 3.5, 7 and 14 nmol/L, respectively, was added to the MMP-2 gold nanosensor to be reacted at temperature of 37° C. for 2 hours, and then the degree of the fluorescence was observed using the Kodak Image Station 4000MM Digital Imaging System.

MMP-13 = MMP-13 (Homo sapiens, UniProt P45452); test: Fluorescence exhibition due to enzyme degradation of gold nanosensor by activated MMP-13 (96-well, Kodak Image Station); format: biochemical; conditions: state (c), 37° C., 2 hours
Experimental: as §1, §2

[2] = test system: Invasive squamous cell carcinoma (SCC7); test: Real-time imaging of cancerous tissue in cancer animal models; format: in vivo, C3H/HeN mouse; conditions: 100 ul
Experimental: Invasive squamous cell carcinoma (SCC7) was injected into C3H/HeN mouse to create a cancer animal model. For the cancerous tissue with a size of more than 5 mm, the MMP-2 gold nanosensor was injected into the cancerous tissue, to thereafter estimate the possibility of imaging the cancer cell.
The invasive squamous cell carcinoma (SCC7) is known as a cancer cell expressing a great amount of MMP-2. The experiment was performed with respect to three animal test groups including a normal mouse having MMP-2 gold nanosensor (100 ul, 10 nM/mL) injected thereinto and a cancer mouse also having MMP-2 gold nanosensor (100 ul, 10 nM/mL) injected thereinto, and a cancer mouse having both MMP-2 gold sensor and MMP-2 inhibitor injected thereinto.

[3] = test system: cancerous tissue overexpressing MMP-2 (SCC7); test: Fluorescence of gold nanosensor in removed cancerous tissue; format: in vivo, C3H/HeN mouse
Experimental: Depending on whether the MMP-2 inhibitor was injected into the cancerous tissue overexpressing MMP-2, the fluorescence of the MMP-2 gold nanosensor was observed.

fluorescence, MMP-2 added (MMP-2; MMP-2 added): bright fluorescence was exhibited | fluorescence, MMP-2 not added (MMP-2; state (a), no MMP-2): fluorescence quenched | fluorescence in the reaction with MMP-2 inhibitor (MMP-2; state (e), MMP-2/MMP-2 inhibitor): no fluorescence is emitted | fluorescence with respect to MMP-13 (MMP-13): rarely exhibits fluorescence
Substance: Cy5.5-GPLGLFARC-Gold [MMP selective gold nanosensor]
size of nanoparticle (average) [1]: approximately 20 nm | fluorescence versus MMP-2 concentration (MMP-2; activated MMP-2 at 0, 1.4, 3.5, 7 and 14 nmol/L): increased in proportion to the concentration of the added MMP-2 enzyme | fluorescence in mouse with cancer cell ([2]; Au NP (SCC7 tumor), 10 nM/mL injected into cancerous tissue): emitted high fluorescence as time elapses | fluorescence in normal mouse ([2]; normal mouse without the cancer cell, 10 nM/mL injected): did not exhibit fluorescence | fluorescence in removed cancerous tissue treated with MMP-2 inhibitor ([3]; cancerous tissue (+inh)): remarkably low fluorescence | fluorescence in removed cancerous tissue not treated with MMP-2 inhibitor ([3]; cancerous tissue (−inh)): remarkably high fluorescence

— US8551727B2, “Gold nanoparticle based protease imaging probes and use thereof” (Korea Institute of Science and Technology, priority 2007, dated 2013)
